Laboratory results reported in publication PMC5859250, “Contribution of transformation products towards the total herbicide toxicity to tropical marine organisms” (Scientific Reports, 2018).
≈ marks a conversion by molar mass, not a printed value.

How the values were obtained:
[1] = test system: prawn (Penaeus monodon) larvae; test: Prawn larvae assay, metamorphosis of nauplii into protozoea (24 h static); format: in vivo
Procedure: The giant tiger prawn (Penaeus monodon) can be found throughout the tropical Indo-Pacific region and can be obtained from aquaculture facilities and has a well-described life cycle. The aim of the larval prawn assay was to determine whether the herbicides and transformation products inhibit early naupliar development. Prawn eggs hatch into their first larval stage (nauplii), typically 12–15 h after spawning. During development the nauplii are lecithotrophic, and over the course of the next 36 h, nauplii pass through 6 sub-stages before metamorphosing into protozoae[67],[68].
Freshly hatched nauplii were harvested by light attraction over 30 min, and washed and aerated for 10 min with seawater, and transported to AIMS in Townsville, Queensland. […] The toxicity assays were performed in incubator shakers (set to 30 °C) under very low light and with gentle shaking to prevent individuals adhering to the side of experimental containers.
The larval stock was gently concentrated via reverse-gravity filtration to a higher density before dispensing 8–10 individuals per 20 ml glass scintillation vials. Additional positive control treatments in the form of 4 concentrations of copper II chloride solution (2 to 900 µg l^−1 Cu), were included for test validation. The static assay was terminated after 24 h and 10% seawater formalin was added as a preservative for later microscopy. Metamorphosis was considered successful when nauplii had developed into protozoea.
The model was constrained by applying a lower limit of 0% inhibition and all curves were tested for normality of the residuals and a replicate test was applied to assess the goodness of fit[36]. The probability that ICX values generated by the logistic curves were statistically different between parent and aged herbicide solutions was tested by applying the F test in Graph Pad Prism v6. ICXs were considered different when p < 0.05. Where inhibition data could not be fitted to logistic curves, one-way analysis of variance (ANOVA) was performed to identify treatments which caused significant (p < 0.05) inhibition comparison with control treatments (NCSS v9, Utah, USA). The larval prawn experimental data was arcsine square root transformed prior to statistical analysis.

[2] = Herbicide degradation in outdoor tanks with coastal seawater and sediment (330 d); format: physicochemical; details: day 330, in tank of the parent herbicide, measured or estimated
Description: Photosystem II herbicides/transformation product solutions were produced by adding herbicides to seawater within separate 120 l outdoor fibreglass tanks, in the presence of natural coastal sediments (further details can be found in Mercurio 2016)[36]. […] The tanks used were previously described in Mercurio et al.[8], with treatment water being partially shaded (70%) and exposed to a maximum of 700 µmol photons m^−2s^−1 over the course of the experiment. The application of a natural diurnal light regime and coastal sediment were previously shown to increase the rates of PSII herbicide degradation and represent more natural conditions than those used in standard degradation tests[8],[36]. Evaporation was minimised with loose-fitting clear acrylic lids and the water continuously circulated using Turbelle Nanostream pumps. Prior to every sampling period evaporation losses were replenished with equal volumes of MilliQ water. The average temperature was 25.7 °C with a range of 15.6–36.6 °C over the course of the study. Unfiltered coastal seawater and sediments were collected from the intertidal zone adjacent to the Australian Institute of Marine Science (19°16′S, 147°03′E), Cape Cleveland, QLD. The sediments were prepared one week prior to use by sieving (>2 mm removed) and thorough mixing. Each tank contained 5 kg of sediment. Physical and chemical information on the seawater and sediments used the treatments can be found in SOM Table 1.
The 20 tanks included replicates for control seawater (n = 4) and the PSII herbicides diuron (n = 4), atrazine (n = 3), simazine (n = 3), hexazinone (n = 3), and ametryn (n = 3). Herbicide treatments and replicates were randomized among tanks. The herbicides were purchased from Sigma Aldrich (>95% purity) and were introduced at ~1 mg l^−1 to enable direct chemical and toxicological testing of the herbicide transformation product mixtures without additional concentration steps. […] The same concentration was used in the controls. Sample collection, internal standard addition, and analytical techniques (HPLC-MS/MS using an AB/Sciex API5500Q mass spectrometer equipped with an electrospray interface and coupled to a Shimadzu Prominence HPLC system) were as previously reported[7],[36]. […] Individual replicates were analysed using HPLC/TripleTOF mass spectrometry for possible transformation products as described in Mercurio 2016[36]. Briefly, 0.2 µm-filtered samples were directly injected into an ABSciex API5600+ Triple TOF mass spectrometer (ABSciex, Concord, Ontario, Canada) equipped with an electrospray (TurboV) interface coupled to a Shimadzu Nexera HPLC system (Shimadzu Corp., Kyoto, Japan). Separation was achieved using a 4 micron 50 × 2.0 mm Phenomenex Synergi Fusion RP column (Phenomenex, Torrance, CA) run at 45 °C, and a flow rate of 0.4 mL min^−1 with a linear gradient starting at 8% B for 0.5 minutes, ramped to 100% B in 8 minutes then held at 100% for 2.0 minutes followed by equilibration at 8% B for 2.5 minutes (A = 1% methanol in HPLC grade water, B = 95% methanol in HPLC grade water, both containing 0.1% acetic acid). The mass spectrometer was operated in positive ion SWATH mode. Briefly this mode comprises a TOF scan of 50 millisecond duration followed by small segments of the mass range being transmitted through the quadrupole, fragmented in the collision cell and full TOF mass spectra taken of the transformation products. Data from these experiments was examined using the Masterview software (ABSciex).
Potential transformation products identified using TOF mass spectrometry and other potential transformation products identified from literature were then re-examined by HPLC/ triple quadrupole mass spectrometry using multiple reaction monitoring. Product ions used were as identified from QTOF data or from literature references and parameters such as collision energy optimised by repeated injections of samples for compounds detected. […]

Brachionus plicatilis = test system: Brachionus plicatilis; parameters: method as in PMID 1722733; details: cited from earlier work
Brachionus calyciflorus = test system: Brachionus calyciflorus; parameters: method as in PMID 1722733; details: cited from earlier work
Navicula sp. = test system: Navicula sp.; parameters: method as in PMID 20800855; details: cited from earlier work
Nephroselmis pyriformis = test system: Nephroselmis pyriformis; parameters: method as in PMID 20800855; details: cited from earlier work
[3] = test system: Phaeodactylum tricornutum; parameters: method as in PMID 20800855; details: cited from earlier work
Cylindrotheca closterium = test system: Cylindrotheca closterium; parameters: method as in PMID 20800855; details: cited from earlier work
Hyalella azteca = test system: Hyalella azteca; parameters: method as in PMID 19533344; details: cited from earlier work
Diporeia spp. = test system: Diporeia spp.; parameters: method as in PMID 19533344; details: cited from earlier work
[4] = 24 h, vs solvent control, ANOVA p < 0.05, aged solutions as concentration of parent herbicide
[5] = Penaeus monodon (giant tiger prawn), in vivo, 24 h

Structure (SMILES)	LOEC, prawn larval metamorphosis [1, 4] [µg/L]	NOEC, prawn larval metamorphosis [1, 4] [µg/L]	Transformation product concentration [2] [µg/L]	LC50 (Brachionus plicatilis)	LC50 (Brachionus calyciflorus)	LOEC, prawn larval metamorphosis [1, 5] [µg/L]	Effect on prawn larval metamorphosis (in words) ([1]; in vivo)	IC10 (Navicula sp.) [µg/mL]	IC10 (Nephroselmis pyriformis) [µg/mL]	IC10 [3] [µg/mL]	IC10 (Cylindrotheca closterium) [µg/mL]	Transformation product concentration ([2]; listed as Desisopropyl Atrazine) [µg/L]	96-hour LC50 (Hyalella azteca) [µg/mL]	96-hour LC50 (Diporeia spp.) [µg/mL]
Nc1ccc(Cl)c(Cl)c1 [3,4-DCA, 3,4-dichloroaniline]	188	54	2.1	~ 60 mg l^−1	~ 60 mg l^−1									
CC(C)Nc1nc(N)nc(Cl)n1 [DEA, desethylatrazine]			36			3.8	significantly inhibiting metamorphosis at all concentrations tested	0.111 (≈ 0.592 µM)	0.0266 (≈ 0.142 µM)	0.046 (≈ 0.245 µM)	0.102 (≈ 0.544 µM)			
CCNc1nc(N)nc(Cl)n1 [DIA, desisopropylatrazine]						3.5	significantly inhibiting metamorphosis at all concentrations tested					5.1	> 3	> 3
